We go through two compounds from publication PMC7845544 (Frontiers in Pharmacology, 2021).

One data set can be described thus: Rat pharmacokinetics. It counts as in vivo. The conditions noted are these: for Rat PK %F: oral bioavailability. As for the experimental part: […] Blood samples were collected at serial time points from 5 min to 24 h. The circulating concentrations of the compound in plasma samples were analyzed by HPLC. PK parameters were determined with Phoenix WinNonlin software (Pharsight Corporation, Sunnyvale, CA, United States) using a non-compartmental model.

A further data set has as its target T1, hTSHR (Homo sapiens, UniProt P16473).
T1 construct: expressed in transfected cells
Put plainly: cAMP (HTRF) in CHO cells transfected with hTSHR. It counts as cell-based. To be noted: for Ratio of EC50 TSHR/FSHR: CHO assays; for EC50: compounds in presence of EC20 ligand (Figure 1 legend); for EC50 / % Response, CHO-hTSHR: mean ± SEM; for % Response, CHO-hTSHR: maximal cAMP vs maximal response of TSH. The method, then:
Chinese hamster ovary (CHO) cells transfected with hFSHR, hLHR or hTSHR were grown as described previously ([Kelton et al., 1992]; [Persani et al., 1993]; [Yu et al., 2014]). In brief, CHO-hFSHR and CHO-hTSHR were maintained in DMEM/F12 + 10% FBS in T150 culture flasks. The cells were cultured until they reached 70–80% confluence (three days) and were then used for assays or passaged. CHO-hLHR ([van de Lagemaat et al., 2009]; [Sriraman et al., 2014]) was cultured in MEM alpha (++) +10% FBS and G418, and passaged every three days. CHO-hFSHR or −hLHR or −hTSR cells (2,500/well) were plated in 5 µL of phenol red free DMEM/F12 + 1% FBS in 384 well solid white low volume plates (Greiner 784075) by Multidrop. […] The plates were incubated at 37°C for 1 h. After the incubation period, cAMP was measured by HTRF® (homogeneous time-resolved fluorescence) assay (CisBio, Bedford, MA). In brief, conditioned media were incubated with cryptate-labeled cAMP antibody and d2-labeled cAMP in lysis buffer for 1 h. Free cAMP produced by cells competes with cAMP-d2 for binding to the anti-cAMP cryptate. An increase in cellular cAMP leads to a decrease in fluorescence resonance energy transfer, which is detectable as a decrease in the emission at 665 nm, measured by Envision fluorescence reader (PerkinElmer, Waltham, MA). The readout was calculated fluorescence ratio (665/620 nm). Values given in percent (%) indicate the percent response at a certain concentration of agonist relative to the maximum response of the protein ligand standard.

The next data set concerns rat granulosa cells. Description: Rat granulosa cell assay measuring secreted estradiol. Type of data set: cell-based. The conditions noted are these: for % Response, estradiol, +EC20 FSH / EC50 / % Response, estradiol, No FSH: 24 h, mean ± SEM; for fold improvement of EC50 for estradiol production by low concentration of rec-hFSH: rec-hFSH 0.2 pM. The method, then: All animals were maintained and handled under IACUC approved procedures at the respective institutions providing contracted service for TocopheRx, following procedures previously approved by local (MA, United States) IACUC reviews ([Sriraman et al., 2014]; [Yu et al., 2014]). Ovarian follicular granulosa cells were isolated from rats implanted with DES pellets (1 mg/day; 7-days release) at ChemPartner (Shanghai, China). The pellets were implanted subcutaneously on 22 day old rats with trochar, employing aseptic techniques after isoflurane anesthesia. Animals were euthanized on post-op day 3, ovaries were excised, cleaned, and granulosa cells were isolated by repeated disruption of the follicle as described previously. Granulosa cells isolated from four to five rats were used to culture one 96-well plate and an equal number of cells was plated in each well. The cells were cultured overnight at 37°C in media containing 5% FBS.
After overnight culture, the media was replaced with serum free media containing 0.1% BSA and 100 nM androstenedione. […] After 24 h of treatment, supernatant was collected and estradiol concentration was determined by ELISA (DRG, Mountainside, NJ, United States). The optical densities of the estradiol ELISA were measured by Spectramax (Sunnyvale, CA, United States). The values were analyzed in Microsoft Excel and Graphpad Prism (San Diego, CA, United States).

For a further data set, the system named is immature SD rats. Put plainly: Superovulation assay in immature rats. It counts as in vivo, rat. The conditions noted are these: for minimal effective dose, cumulus oocyte complexes (COC): with low dose rec-hFSH (0.29 IU). The method, then: Immature SD rats and B6C3F1 mice (both 18–21 day old females) were purchased from Charles-River laboratories (Wilmington, MA, United States and Shanghai, China). All animals were treated in accordance to Chempartner (Shanghai, China) or Embryotech (Haverhill, MA, United States) IACUC approved animal protocols. The animals were provided water and food ad libitum and housed under 12 h dark and 12 h light schedules.
Immature rats and mice were used to investigate the ability of the small molecules to induce follicular development and support ovulation as described elsewhere ([Steelman and Pohley, 1953]) with modifications ([Sriraman et al., 2014]). […] The isolated COC’s were treated with hyaluronidase and the total number of ovulated oocytes was determined microscopically.
Plasma concentrations of FSHR-AA were measured during superovulation assays, except for experiments where plasma was collected for estradiol measurements.

The subject of another data set is rat Leydig cells. Put plainly: Testosterone production from rat primary Leydig cells. Type of data set: cell-based. To be noted: 3 h incubation. As for the experimental part:
Testes were obtained from 21 day old male SD rats, decapsulated into DMEM/F12 media, placed into a spinner flask containing pre-warmed 25 ml digestion media (DMEM/F12 no phenol red + 1 mg/ml Collagenase), and stirred at 37°C in 5% CO2 incubator for 10–15 min ([Hedger et al., 1990]). The digestion supernatant was passed through a 70 um cell strainer into a 50 ml tube, and the digestion was stopped with 0.1% BSA + 0.1 mg/ml trypsin soybean inhibitor) in 50 ml. The digested cells were centrifuged at 800 rpm for 5 min, the supernatant discarded and the cell pellet resuspend in 1 ml assay buffer (DMEM/F12 no phenol red +0.1% BSA) per paired testes. The cells were counted and diluted to 5 × 10^6 cells/ml, and 50 ul of this cell suspension was added to each well of a 96-well plate. Testes obtained from five 21 day old rats generally yielded 1 × 10^8 cells. […] At the end of incubation, media was collected and testosterone measured by ELISA (EIA‐1559, DRG).

For data set [1] the following is noted: microsomes.
For data set [2] the following is noted: microsomes. The source holds these as a separate data set.
For the next data set, the system named is mammalian cell. Description: Chromosomal aberrations, micronucleus test (MNT). Type of data set: cell-based.
[3] abbreviates: +EC20 FSH, read-out: EC50 (M), estradiol, +EC20 FSH.
The mark [4] stands for this setting: No FSH, read-out: EC50 (M), estradiol, No FSH.

Values joined by “and” are separate entries in the source; they are usually repeats but may differ in a detail not shown here. Equal values may be shown once. “Also recorded” adds a separate entry of the source. Read-outs that look alike come from different tables or passages of the source.

T1 sequence (P16473 21-764): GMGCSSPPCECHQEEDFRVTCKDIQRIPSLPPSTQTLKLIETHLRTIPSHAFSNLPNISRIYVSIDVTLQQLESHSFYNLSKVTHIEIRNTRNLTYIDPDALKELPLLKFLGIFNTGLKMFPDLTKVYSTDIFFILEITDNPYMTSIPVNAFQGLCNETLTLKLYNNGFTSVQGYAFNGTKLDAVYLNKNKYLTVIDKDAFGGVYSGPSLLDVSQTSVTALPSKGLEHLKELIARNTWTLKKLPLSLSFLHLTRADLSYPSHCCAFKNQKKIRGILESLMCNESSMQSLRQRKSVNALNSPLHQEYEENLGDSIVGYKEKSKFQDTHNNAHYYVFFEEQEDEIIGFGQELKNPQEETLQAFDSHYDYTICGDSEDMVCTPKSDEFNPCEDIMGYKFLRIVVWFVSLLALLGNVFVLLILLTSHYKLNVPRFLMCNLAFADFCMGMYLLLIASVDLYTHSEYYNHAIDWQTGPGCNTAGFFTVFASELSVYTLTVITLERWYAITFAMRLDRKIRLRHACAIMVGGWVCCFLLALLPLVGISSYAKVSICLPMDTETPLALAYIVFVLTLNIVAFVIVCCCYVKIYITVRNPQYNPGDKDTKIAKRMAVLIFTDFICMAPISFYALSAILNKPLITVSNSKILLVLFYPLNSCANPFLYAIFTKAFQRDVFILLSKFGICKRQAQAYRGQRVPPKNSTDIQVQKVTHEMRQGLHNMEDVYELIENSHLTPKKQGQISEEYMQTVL

For orientation: EC50 means the concentration at which the effect is half-maximal. On to `COc1cc(C(N)=O)cc(-c2cc3c(cc2OC)OCc2c(C(=O)N(C)C(C)(C)C)nn(-c4cc(Cl)cc(Cl)c4)c2-3)n1` [TOP5668], for which, in the data set “Rat pharmacokinetics” (mature rat pharmacokinetic models), the “fold lower exposure than TOP5300” value is reported as 3-4 fold. In “Rat pharmacokinetics” (5 mg/kg), the “Rat PK AUC” value is 1,530 ng*h/ml; the “Rat PK Cmax” value is 132 ng/mL; the “Rat PK T1/2” value is 2.4 h; the “Rat PK %F” value was 5% and 5.4%. Further, at hTSHR, the “Ratio of EC50 TSHR/FSHR” value is recorded as 77; the concentration for a half-maximal effect (EC50) worked out at 170 nM; the “% Response, CHO-hTSHR” value was found to be 92.28 ± 0.88%. The “% Response, estradiol, +EC20 FSH” value in the data set with rat granulosa cells (+EC20 FSH) is listed as 117 ± 8%. In the data set with rat granulosa cells (setting [3]), the EC50 is 7.33e-08 M. Moreover, in the data set with rat granulosa cells (No FSH), the “% Response, estradiol, No FSH” value was determined as 93%. In the data set with rat granulosa cells (setting [4]), the EC50 was 1.82e-07 M. For the same compound, in the data set with rat granulosa cells (estradiol production), the “fold more potent than TOP5300, rat granulosa cells” value came out at 5 fold. For the same compound, the “fold improvement of EC50 for estradiol production by low concentration of rec-hFSH” value in the data set with rat granulosa cells is listed as 2 fold. The “fold more potent than TOP5300, superovulation dose response” value with immature SD rats (immature rat) was “approximately 2 fold”. Further, the “minimal effective dose, cumulus oocyte complexes (COC)” value in the data set with immature SD rats (immature rat, oral) stood at 2.5 mg/kg. Also, in the data set with rat Leydig cells, the “testosterone production from cultured rat Leydig cells” value is “very little activity”. Moreover, in data set [1], the “Clint, dog” value is given as 44 µl/min/mg protein. In addition, the “Clint, rat” value in data set [2] amounted to 7 µl/min/mg protein.
Turning to `COc1cc2c(cc1-c1cnn(CCO)c1)-c1c(c(C(=O)N(C)C(C)(C)C)nn1-c1cc(Cl)cc(Cl)c1)CO2` [TOP5300], in the data set “Rat pharmacokinetics” (10 mg/kg), the “Rat PK AUC” value was 2,655 ng*h/ml, the “Rat PK Cmax” value came out at 237 ng/mL, the “Rat PK T1/2” value is 5.1 h and the “Rat PK %F” value came out at 20%. Besides, in the data set with mammalian cell, the “Micronucleus Test (MNT) result” value was “N e g a tiv e; also recorded: inactive”. In addition, on hTSHR, the “Ratio of EC50 TSHR/FSHR” value came out at 52; the concentration for a half-maximal effect (EC50) came to 505 nM; the “% Response, CHO-hTSHR” value is on record as 84.97 ± 0.85%. Also, the “% Response, estradiol, +EC20 FSH” value with rat granulosa cells (+EC20 FSH) is given as 125 ± 12%. In addition, the EC50 with rat granulosa cells (setting [3]) stood at 1.75e-07 M. For the same compound, the “% Response, estradiol, No FSH” value with rat granulosa cells (No FSH) worked out at 65 ± 6%. In addition, in the data set with rat granulosa cells (setting [4]), the EC50 is 8.68e-07 M. Further, the “fold improvement of EC50 for estradiol production by low concentration of rec-hFSH” value with rat granulosa cells stood at 2 fold. Moreover, in the data set with immature SD rats (50 mg/kg, oral, with 0.29 IU rec-hFSH), the “number of COCs vs 1.16 IU rec-hFSH” value is on record as “not significantly different from 1.16 IU rec-hFSHH”. For the same compound, the “serum estradiol-17β production” value in the data set with immature SD rats (5, 10 and 25 mg/kg, immature rat) is given as “followed the follicular stimulation response”. For the same compound, in the data set with immature SD rats (immature rat, oral), the “follicular maturation with or without supplemental rec-hFSH (0.29 IU)” value is given as “full agonist” and the “minimal effective dose, cumulus oocyte complexes (COC)” value is reported as 5 mg/kg. In the data set with immature SD rats (immature rat, oral gavage, with 0.29 IU FSH), the “single daily dose (QD) vs twice daily (BID) administration, follicular maturation” value is “stimulates similar follicular growth; also recorded: equally effective as twice daily administrations”. Moreover, in the data set with rat Leydig cells, the “testosterone production from cultured rat Leydig cells” value is recorded as “stimulated concentration-dependent increases in testosterone production”. The “Clint, dog” value in data set [1] is 37 µl/min/mg protein. In data set [2], the “Clint, rat” value is on record as 11 µl/min/mg protein.
